Test results published in US20250122202A1, “EGFR INHIBITOR, PREPARATION METHOD THEREFOR AND USE THEREOF” (SHANDONG NEW TIME PHARMACEUTICAL CO., LTD., priority 2021, published 2025).

Experiments:
[1] = test system: KC-1474:PC-9 EGFR-Del19/T790M/C797S; assay: Cell proliferation inhibition experiment (CCK-8), KC-1474; assay type: cell-based; details: Homo sapiens, 72 h
Description: (§1) Inhibition rate %=[(A0−AS)/(A0−AC)]×100%.

[2] = target: EGFR (D770-N771 ins NPG T790M) kinase (Homo sapiens (Human), UniProt P00533, INS770NPG/T790M); assay: In-vitro enzyme experiment 1 (HTRF kinase assay), EGFR D770-N771 ins NPG T790M; assay type: biochemical
Chain of EGFR (D770-N771 ins NPG T790M) kinase (P00533 other isoform, or with tags, fused parts or gaps T790M/del 1-668/ins NPG behind 770 limits assumed): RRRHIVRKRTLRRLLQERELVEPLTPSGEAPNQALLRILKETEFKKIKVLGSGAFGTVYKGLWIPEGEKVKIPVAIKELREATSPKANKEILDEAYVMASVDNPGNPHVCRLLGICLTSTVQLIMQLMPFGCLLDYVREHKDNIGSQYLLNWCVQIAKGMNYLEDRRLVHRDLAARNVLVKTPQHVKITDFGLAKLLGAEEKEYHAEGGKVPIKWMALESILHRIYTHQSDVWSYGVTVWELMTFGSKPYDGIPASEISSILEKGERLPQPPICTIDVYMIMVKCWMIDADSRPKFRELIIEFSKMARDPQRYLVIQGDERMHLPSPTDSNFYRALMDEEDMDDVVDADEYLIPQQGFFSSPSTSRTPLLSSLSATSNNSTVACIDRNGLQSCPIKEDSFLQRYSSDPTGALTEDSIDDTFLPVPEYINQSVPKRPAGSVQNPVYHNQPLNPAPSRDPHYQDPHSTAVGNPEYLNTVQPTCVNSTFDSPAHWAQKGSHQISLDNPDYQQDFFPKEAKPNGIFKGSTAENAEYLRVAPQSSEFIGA
Procedure: (§2) The specific experiment was as follows: • 1. Preparation of 1× concentration kinase buffer • 1 volume of 5 times concentration of an enzyme buffer diluted with 4 volumes of distilled water; 5 mM magnesium chloride; 1 mM DTT; and 1 mM MnCl2. • 2. Test method of activity of compound • a) a compound diluent was transferred to each well of an assay plate (784075, Greiner) using Echo 550; • b) the assay plate was sealed and centrifuged at 1,000 g for 1 min; • c) 2×EGFR (D770-N771 ins NPG T790M) was prepared in a 1× kinase buffer; • d) 5 μl of the 2×EGFR (D770-N771 ins NPG T790M) was added to a 384-well assay plate (784075, Greiner); • e) the assay plate was centrifuged at 1,000 g for 30 s and incubated at room temperature for 10 min; • f) 2× TK-substrate-biotin (2 μM) and ATP were added to the 1× kinase buffer and mixed; • g) the reaction was started after adding 5 μl of the TK-substrate-biotin (2 μM) and ATP mixture; • h) the assay plate was centrifuged at 1,000 g for 30 s; and the assay plate was sealed and incubated at room temperature for 40 min; • i) 4× Sa-XL 665 was prepared in an HTRF detection buffer; • j) 5 μl of the Sa-XL 665 and 5 μl of a TK-antibody-cryptate were added to each well of the assay plate; • k) the assay plate was centrifuged at 1,000 g for 30 s and incubated at room temperature for 1 h; and • l) fluorescence signals at 615 nm (cryptate) and 665 nm (XL665) were read on an Envision 2104 reader. • 3. Data analysis • 3.1 Calculation of ratio (665/615 nm) of each well • 3.2 Calculation of inhibition rate
(§3) [formula] • 3.3 Calculation of IC50 value of compound and drawing dose-effect curve of compound • IC50 values were calculated using GraphPad 6.0 by applying a non-linear regression curve (dose-effect relationship-variable slope) of the logarithm of the compound concentration versus the inhibition rate.
Y=lowest value+(highest value−lowest value)/(1+10^((Log IC50−X)×slope)) • X: logarithm of inhibitor concentration; and Y: inhibition rate. • 3.4 Double test report • 3.4.1 After one tester completed a report, another tester again checked the report to ensure that data analysis was correct. • 3.4.2 The data was exported from the software and manually analyzed. • 3.4.2.1 The rate was converted into the inhibition rate. All the IC50 values were first calculated with the inhibition rate using Prism GraphPad 6.0. • 3.4.2.2 Then the IC50 value was recalculated using the ratio to check the accuracy of the analysis. • 3.4.3 The number of all the compounds was ensured to be correct.

[3] = test system: KC-1362 BaF3-EGFR D770-N771 ins NPG cells; assay: Anti-proliferative activity on KC-1362 BaF3-EGFR D770-N771 ins NPG cells; assay type: cell-based; details: Ba/F3 EGFR
[4] = target: EGFR-Del19/T790M/C797S kinase (Homo sapiens, UniProt P00533, C797S/T790M, form not given); assay: In-vitro enzyme experiment 2 (HTRF kinase assay), EGFR Del19 T790M C797S; assay type: biochemical; details: read-out: enzyme inhibition IC50 (nM) EGFR-Del19/T790M/C797S
Chain of EGFR-Del19/T790M/C797S kinase (P00533 25-1210 T790M/C797S limits assumed, form open): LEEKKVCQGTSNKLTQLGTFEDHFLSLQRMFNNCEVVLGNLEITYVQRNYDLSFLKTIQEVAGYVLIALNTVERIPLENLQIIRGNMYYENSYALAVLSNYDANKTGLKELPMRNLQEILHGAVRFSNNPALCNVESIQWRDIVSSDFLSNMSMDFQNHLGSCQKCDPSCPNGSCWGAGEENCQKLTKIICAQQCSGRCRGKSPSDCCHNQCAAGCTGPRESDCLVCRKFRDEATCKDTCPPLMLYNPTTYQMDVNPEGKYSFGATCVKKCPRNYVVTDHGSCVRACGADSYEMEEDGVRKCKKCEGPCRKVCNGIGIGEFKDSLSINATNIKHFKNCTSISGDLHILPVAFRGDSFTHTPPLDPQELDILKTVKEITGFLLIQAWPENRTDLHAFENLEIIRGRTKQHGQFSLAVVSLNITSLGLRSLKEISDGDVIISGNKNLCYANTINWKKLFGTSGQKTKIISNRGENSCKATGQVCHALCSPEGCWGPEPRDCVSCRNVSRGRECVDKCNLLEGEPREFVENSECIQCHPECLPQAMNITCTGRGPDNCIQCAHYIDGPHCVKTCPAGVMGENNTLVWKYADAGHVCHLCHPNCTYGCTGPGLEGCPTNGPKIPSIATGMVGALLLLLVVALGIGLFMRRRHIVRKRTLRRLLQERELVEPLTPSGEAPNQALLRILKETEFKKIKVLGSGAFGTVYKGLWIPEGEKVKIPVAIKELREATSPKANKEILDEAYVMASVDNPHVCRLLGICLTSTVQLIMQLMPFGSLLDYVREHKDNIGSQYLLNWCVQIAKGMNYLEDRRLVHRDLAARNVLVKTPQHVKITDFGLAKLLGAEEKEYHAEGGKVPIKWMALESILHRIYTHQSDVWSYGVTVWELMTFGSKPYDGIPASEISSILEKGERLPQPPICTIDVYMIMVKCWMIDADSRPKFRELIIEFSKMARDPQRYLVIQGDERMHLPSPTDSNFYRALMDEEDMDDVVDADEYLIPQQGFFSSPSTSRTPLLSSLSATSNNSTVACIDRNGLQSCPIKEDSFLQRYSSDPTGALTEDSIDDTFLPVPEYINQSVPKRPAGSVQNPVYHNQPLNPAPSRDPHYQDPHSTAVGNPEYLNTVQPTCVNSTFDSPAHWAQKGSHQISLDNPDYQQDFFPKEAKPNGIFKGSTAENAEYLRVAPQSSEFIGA
Procedure: as §2, with “Preparation of 1× concentration kinase buffer • 1 volume of 5 times concentration of an enzyme buffer diluted with 4 volumes of distilled water; 5 mM magnesium chloride; 1 mM DTT; and 1 mM MnCl2. • 2.” left out
as §3
The preparation of the kinase buffer, the test method of the activity of the compound, and the data analysis referred to the relevant definitions in example 117, wherein step c) of the test method of the activity of the compound was replaced by preparing 2×EGFR Del19 T790M C797S in the 1× kinase buffer.

[5] = target: EGFR D770-N771 ins NPG kinase (Homo sapiens (Human), UniProt P00533, INS770NPG); assay: In-vitro enzyme experiment 1 (HTRF kinase assay), D770-N771 ins NPG kinase; assay type: biochemical
Chain of EGFR D770-N771 ins NPG kinase (P00533 other isoform, or with tags, fused parts or gaps del 1-668/ins NPG behind 770 limits assumed): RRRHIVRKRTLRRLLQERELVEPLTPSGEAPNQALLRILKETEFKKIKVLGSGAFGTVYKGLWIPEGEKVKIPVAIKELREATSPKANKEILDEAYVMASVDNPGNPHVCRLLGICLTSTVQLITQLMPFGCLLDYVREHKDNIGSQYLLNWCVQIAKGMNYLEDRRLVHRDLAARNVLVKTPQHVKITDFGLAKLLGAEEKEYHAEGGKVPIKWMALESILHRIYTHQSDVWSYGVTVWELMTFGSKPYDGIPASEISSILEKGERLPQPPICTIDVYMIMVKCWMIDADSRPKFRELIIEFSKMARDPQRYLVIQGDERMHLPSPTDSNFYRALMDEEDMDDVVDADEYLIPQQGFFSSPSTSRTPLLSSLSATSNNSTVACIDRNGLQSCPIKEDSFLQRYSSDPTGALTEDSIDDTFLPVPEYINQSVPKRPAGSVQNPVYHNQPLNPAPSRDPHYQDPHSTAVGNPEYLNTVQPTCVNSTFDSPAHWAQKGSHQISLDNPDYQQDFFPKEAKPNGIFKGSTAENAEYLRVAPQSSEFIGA

[6] = test system: KC-0178:NCI-1975 EGFR-L858R/T790M/C797S; assay: Cell proliferation inhibition experiment (CCK-8), KC-0178; assay type: cell-based; details: Homo sapiens, 72 h
Description: as §1

H1975 EGFR-L858R/T790M = assay: Cell proliferation inhibition experiment (CCK-8), H1975; assay type: cell-based; details: Homo sapiens, NCI-H1975, 72 h
Description: as §1

IC50 [1]: < 0.1 µM
IC50 [2]: 8.8 nM
IC50 [3]: 70 nM
IC50 [4]: < 10 nM
IC50 [5]: 2.82 nM
IC50 (H1975 EGFR-L858R/T790M): 0.1 to 1 µM
Structure (SMILES): CN1CCN(c2ccc(Nc3nc(N[C@H]4CC[C@@H](CO)CC4)c4c(C(=O)c5ccc(F)cc5)c[nH]c4n3)cc2)CC1 [Example 60]
IC50 [6]: 1 to 2 µM
